Values quoted from earlier work as cited in patent US11986479B2 (priority 2022, dated 2024).
Read-outs that look alike come from different tables or passages of the source.

Experiments:
[1] = not given; remark: listed apart in the source
[2] = not given; remark: listed apart in the source

SMILES: Cn1cnc([N+](=O)[O-])c1Sc1ncnc2nc[nH]c12 [Azathoprine, 1H-Purine, 6-[(1-methyl-4-nitro-1H-imidazol-5-yl)thio]-]
- solubility in alkali (solutions of alkali hydroxides / one molar equivalent of alkali): may be dissolved
- solubility in water (water): insoluble
- stability in the presence of sulfhydryl compounds ([1]; cysteine, glutathione, hydrogen sulfide): Conversion to mercaptopurine also occurs
- stability in solution ([1]; excess sodium hydroxide (0.1N), especially on warming): hydrolysis to mercaptopurine occurs
- stability in solution ([1]; neutral or acid pH): stable

SMILES: C[C@@H]1C[C@H]2[C@@H]3CCC4=CC(=O)C=C[C@]4(C)[C@@]3(F)[C@@H](O)C[C@]2(C)[C@@]1(O)C(=O)CO [Dexamethasone, 9-fluoro-11β,17,21-trihydroxy-16α-methylpregna-1,4-diene-3,20-dione]
- solubility in water (water): practically insoluble
- stability in air ([1]; air): stable

SMILES: CCN(CC)C(=S)SSC(=S)N(CC)CC [Disulfiram, bis(diethylthiocarbamoyl) disulfide]
- diarrhea in list of adverse reactions ([2]; in vivo): not mentioned
- soluble in alcohol (alcohol): about 3.8 g in 100 mL
- soluble in water (water): about 20 mg in 100 mL

SMILES: Sc1ncnc2nc[nH]c12 [Mercaptopurine, 6H-purine-6-thione, 1,7-dihydro-, monohydrate]
- patients who experienced diarrhea ([2]; leukemia patients): 9%
- solubility in ether (ether): practically insoluble
